Measured values from patent US10766882B2, “1,2-naphthoquinone based derivative and method of preparing the same” (YUNGJIN PHARM. CO., LTD., priority 2013, dated 2020).

These compounds were tested against NQO1 protein (Homo sapiens, UniProt P15559) (assay: NQO1 activity measurement (cytochrome C reduction)). Conditions: 5 ng NQO1 protein, 200 μM NADH, 77 μM cytochrome C, 37° C., absorbance 550 nm for 10 minutes.
Chain of NQO1 protein (P15559 whole entry, species assumed): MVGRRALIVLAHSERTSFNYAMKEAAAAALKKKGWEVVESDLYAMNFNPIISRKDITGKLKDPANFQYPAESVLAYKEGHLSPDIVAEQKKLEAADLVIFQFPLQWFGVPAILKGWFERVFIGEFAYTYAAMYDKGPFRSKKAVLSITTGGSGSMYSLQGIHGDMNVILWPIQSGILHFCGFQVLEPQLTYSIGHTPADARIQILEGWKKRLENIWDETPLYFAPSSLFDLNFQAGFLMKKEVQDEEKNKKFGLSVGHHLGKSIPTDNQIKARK
Assay type: biochemical
Description: An enzyme reaction solution included 25 mM Tris/HCl (pH 7.4), 0.14% bovine serum albumin, 200 μM NADH, 77 μM cytochrome C, and 5 ng of NQO1 protein. Enzymatic reaction was initiated by adding NADH and performed at 37° C. In this regard, a reaction rate was measured by observing absorbance, which was increased due to reduction of cytochrome C, at 550 nm for 10 minutes and NQO1 activity was represented as an amount of reduced cytochrome C [nmol cytochrome C reduced/min/μg protein].
Extinction coefficient for cytochrome C:21.1 mmol/L/cm=21.1 μmol/ml/cm
In the case of `CC(C)c1nc2c([nH]1)C(=O)C(=O)c1cc(NC(=O)C3CC3)ccc1-2` [Example 20], the “NQO1 activity (5 μM, [nmol cytochrome C reduced/min/μg protein])” value is reported as 6.4 nmol cytochrome C reduced/min/μg protein. For `Cc1cc(F)ccc1OCc1nc2c([nH]1)C(=O)C(=O)c1ccccc1-2` [Example 50], the “NQO1 activity (5 μM, [nmol cytochrome C reduced/min/μg protein])” value was 100.6 nmol cytochrome C reduced/min/μg protein. In the case of `CN(Cc1nc2c([nH]1)C(=O)C(=O)c1ccccc1-2)c1ccccc1` [Example 51, 2-((methyl (phenyl)amino)methyl)-3H-naphtho[2,1-d]imidazole-4,5-dione], the “NQO1 activity (5 μM, [nmol cytochrome C reduced/min/μg protein])” value is reported as 140.8 nmol cytochrome C reduced/min/μg protein. In the case of `Cc1cc(F)ccc1N(Cc1nc2c([nH]1)C(=O)C(=O)c1ccccc1-2)C(=O)OC(C)(C)C` [Example 52], the “NQO1 activity (5 μM, [nmol cytochrome C reduced/min/μg protein])” value is reported as 60.3 nmol cytochrome C reduced/min/μg protein. In the case of `Cc1cc(F)ccc1NCc1nc2c([nH]1)C(=O)C(=O)c1ccccc1-2` [Example 53], the “NQO1 activity (5 μM, [nmol cytochrome C reduced/min/μg protein])” value is reported as 112.6 nmol cytochrome C reduced/min/μg protein. `O=C1C(=O)c2[nH]c(CCc3ccc(F)cc3)nc2-c2ccccc21` [Example 54] was tested, and the “NQO1 activity (5 μM, [nmol cytochrome C reduced/min/μg protein])” value was 126.9 nmol cytochrome C reduced/min/μg protein. With `CN(C)Cc1nc2c([nH]1)C(=O)C(=O)c1ccccc1-2` [Example 59] the “NQO1 activity (5 μM, [nmol cytochrome C reduced/min/μg protein])” value was 149.3 nmol cytochrome C reduced/min/μg protein. In the case of `CC(c1nc2c([nH]1)C(=O)C(=O)c1ccccc1-2)N(C)C` (stereo not drawn) [Example 60], the “NQO1 activity (5 μM, [nmol cytochrome C reduced/min/μg protein])” value is reported as 140.1 nmol cytochrome C reduced/min/μg protein. `CC(c1nc2c([nH]1)C(=O)C(=O)c1ccccc1-2)N1CCOCC1` (stereo not drawn) [Example 61] was tested, and the “NQO1 activity (5 μM, [nmol cytochrome C reduced/min/μg protein])” value was 204.1 nmol cytochrome C reduced/min/μg protein. In the case of `CN(C)c1nc2c([nH]1)C(=O)C(=O)c1ccccc1-2` [Example 62, 2-(dimethylamino)-3H-naphtho[2,1-d]imidazole-4,5-dione], the “NQO1 activity (5 μM, [nmol cytochrome C reduced/min/μg protein])” value is reported as 113.3 nmol cytochrome C reduced/min/μg protein. For `O=C1C(=O)c2[nH]c(N3CCCC3)nc2-c2ccccc21` [Example 63, 2-(pyrrolidin-1-yl)-3H-naphtho[2,1-d]imidazole-4,5-dione], the “NQO1 activity (5 μM, [nmol cytochrome C reduced/min/μg protein])” value was 40.3 nmol cytochrome C reduced/min/μg protein. For `CC(C)c1nc2c(n1CCCl)C(=O)C(=O)c1ccccc1-2` [Example 64], the “NQO1 activity (5 μM, [nmol cytochrome C reduced/min/μg protein])” value was 189.5 nmol cytochrome C reduced/min/μg protein. With `CC(c1nc2c([nH]1)C(=O)C(=O)c1ccccc1-2)N1CCCC1` (stereo not drawn) [Example 65] the “NQO1 activity (5 μM, [nmol cytochrome C reduced/min/μg protein])” value was 93.5 nmol cytochrome C reduced/min/μg protein. `CC(C)c1nc2c(n1CCN1CCOCC1)C(=O)C(=O)c1ccccc1-2` [Example 66] was tested, and the “NQO1 activity (5 μM, [nmol cytochrome C reduced/min/μg protein])” value was 56.0 nmol cytochrome C reduced/min/μg protein. In the case of `O=C1C(=O)c2[nH]c(N3CCOCC3)nc2-c2ccccc21` [Example 67, 2-morpholino-3H-naphtho[2,1-d]imidazole-4,5-dione], the “NQO1 activity (5 μM, [nmol cytochrome C reduced/min/μg protein])” value is reported as 143.1 nmol cytochrome C reduced/min/μg protein. With `CC(C)c1nc2c(n1CCO)C(=O)C(=O)c1ccccc1-2` [Example 68, 3-(2-hydroxyethyl)-2-isopropyl-3H-naphtho[2,1-d]imidazole-4,5-dione] the “NQO1 activity (5 μM, [nmol cytochrome C reduced/min/μg protein])” value was 143.0 nmol cytochrome C reduced/min/μg protein. In the case of `CC(C)c1nc2c(n1Cn1c(C(C)C)nc3c1C(=O)C(=O)c1ccccc1-3)C(=O)C(=O)c1ccccc1-2` [Example 69], the “NQO1 activity (5 μM, [nmol cytochrome C reduced/min/μg protein])” value is reported as 160.5 nmol cytochrome C reduced/min/μg protein. In the case of `O=C1C(=O)c2[nH]c(Cl)nc2-c2ccccc21` [Example 70, 2-chloro-3H-naphtho[2,1-d]imidazole-4,5-dione], the “NQO1 activity (5 μM, [nmol cytochrome C reduced/min/μg protein])” value is reported as 83.9 nmol cytochrome C reduced/min/μg protein. In the case of `CCOc1nc2c([nH]1)C(=O)C(=O)c1ccccc1-2` [Example 71], the “NQO1 activity (5 μM, [nmol cytochrome C reduced/min/μg protein])” value is reported as 124.7 nmol cytochrome C reduced/min/μg protein. In the case of `CC(C)c1nc2c(n1CCN(C)C)C(=O)C(=O)c1ccccc1-2` [Example 72], the “NQO1 activity (5 μM, [nmol cytochrome C reduced/min/μg protein])” value is reported as 51.0 nmol cytochrome C reduced/min/μg protein. With `O=C1C(=O)c2[nH]c(C3CCCO3)nc2-c2ccccc21` (stereo not drawn) [Example 73] the “NQO1 activity (5 μM, [nmol cytochrome C reduced/min/μg protein])” value was 180.8 nmol cytochrome C reduced/min/μg protein. In the case of `CCOc1nc2c(n1C)C(=O)C(=O)c1ccccc1-2` [Example 74], the “NQO1 activity (5 μM, [nmol cytochrome C reduced/min/μg protein])” value is reported as 193.5 nmol cytochrome C reduced/min/μg protein. For `CN1CCN(c2nc3c([nH]2)C(=O)C(=O)c2ccccc2-3)CC1` [Example 75, 2-(4-methylpiperazin-1-yl)-3H-naphtho[2,1-d]imidazole-4,5-dione], the “NQO1 activity (5 μM, [nmol cytochrome C reduced/min/μg protein])” value was 26.9 nmol cytochrome C reduced/min/μg protein. With `CC(C)(O)c1nc2c([nH]1)C(=O)C(=O)c1ccccc1-2` [Example 76] the “NQO1 activity (5 μM, [nmol cytochrome C reduced/min/μg protein])” value was 183.5 nmol cytochrome C reduced/min/μg protein. `CCC(CC)c1nc2c([nH]1)C(=O)C(=O)c1ccccc1-2` [Example 77] was tested, and the “NQO1 activity (5 μM, [nmol cytochrome C reduced/min/μg protein])” value was 223.3 nmol cytochrome C reduced/min/μg protein. With `O=C1C(=O)c2[nH]c(COc3ccc(F)cc3)nc2-c2ccccc21` [Example 79] the “NQO1 activity (5 μM, [nmol cytochrome C reduced/min/μg protein])” value was 96.9 nmol cytochrome C reduced/min/μg protein. With `Cn1c(COc2ccc(F)cc2)nc2c1C(=O)C(=O)c1ccccc1-2` [Example 80] the “NQO1 activity (5 μM, [nmol cytochrome C reduced/min/μg protein])” value was 162.6 nmol cytochrome C reduced/min/μg protein. For `CC(C)c1nc2c(n1Cc1ccncc1)C(=O)C(=O)c1ccccc1-2` [Example 81], the “NQO1 activity (5 μM, [nmol cytochrome C reduced/min/μg protein])” value was 169.4 nmol cytochrome C reduced/min/μg protein. `CC(F)(F)c1nc2c([nH]1)C(=O)C(=O)c1ccccc1-2` [Example 82] was tested, and the “NQO1 activity (5 μM, [nmol cytochrome C reduced/min/μg protein])” value was 70.2 nmol cytochrome C reduced/min/μg protein. For `CC(C)c1nc2c(n1Cc1cccnc1)C(=O)C(=O)c1ccccc1-2` [Example 83], the “NQO1 activity (5 μM, [nmol cytochrome C reduced/min/μg protein])” value was 162.5 nmol cytochrome C reduced/min/μg protein. In the case of `CC(C)c1nc2c(n1Cc1ccccn1)C(=O)C(=O)c1ccccc1-2` [Example 84], the “NQO1 activity (5 μM, [nmol cytochrome C reduced/min/μg protein])” value is reported as 172.0 nmol cytochrome C reduced/min/μg protein. For `CC(C)c1nc2c(n1C(C)C)C(=O)C(=O)c1ccccc1-2` [Example 85], the “NQO1 activity (5 μM, [nmol cytochrome C reduced/min/μg protein])” value was 135.4 nmol cytochrome C reduced/min/μg protein. `CCc1nc2c(n1CC)C(=O)C(=O)c1ccccc1-2` [Example 86] was tested, and the “NQO1 activity (5 μM, [nmol cytochrome C reduced/min/μg protein])” value was 220.0 nmol cytochrome C reduced/min/μg protein. With `O=C1C(=O)c2[nH]c(-c3cccnc3)nc2-c2ccccc21` [Example 87] the “NQO1 activity (5 μM, [nmol cytochrome C reduced/min/μg protein])” value was 94.7 nmol cytochrome C reduced/min/μg protein. With `CCc1nc2c(n1CC)C(=O)C(=O)c1cc(F)ccc1-2` [Example 88] the “NQO1 activity (5 μM, [nmol cytochrome C reduced/min/μg protein])” value was 187.4 nmol cytochrome C reduced/min/μg protein. In the case of `CCc1nc2c(n1C(C)C)C(=O)C(=O)c1cc(F)ccc1-2` [Example 89], the “NQO1 activity (5 μM, [nmol cytochrome C reduced/min/μg protein])” value is reported as 145.0 nmol cytochrome C reduced/min/μg protein. With `CCc1nc2c(n1C(C)C)C(=O)C(=O)c1ccccc1-2` [Example 90] the “NQO1 activity (5 μM, [nmol cytochrome C reduced/min/μg protein])” value was 241.3 nmol cytochrome C reduced/min/μg protein. With `CC(O)c1nc2c(n1C(C)C)C(=O)C(=O)c1ccccc1-2` (stereo not drawn) [Example 91] the “NQO1 activity (5 μM, [nmol cytochrome C reduced/min/μg protein])” value was 206.9 nmol cytochrome C reduced/min/μg protein. In the case of `O=C1C(=O)c2[nH]c(-c3nc4c([nH]3)C(=O)C(=O)c3ccccc3-4)nc2-c2ccccc21` [Example 92], the “NQO1 activity (5 μM, [nmol cytochrome C reduced/min/μg protein])” value is reported as 186.8 nmol cytochrome C reduced/min/μg protein.
